In general, solubility refers to how much of the substance goes into solution per volume. Usually inhibition stands for the change of the read-out against control, counted positive when it falls.

This note sets out measurements from patent US5081118A, “Benzothiazine dioxide derivatives” (Pfizer Inc., priority 1990, dated 1992).

Data set [1] can be described thus: physchem. The conditions noted are these: water.
Data set [2] deals with carrageenin-induced rat foot edema. As to the kind of experiment: standard carrageenin-induced rat foot edema test, oral. The class given is in vivo. The note with it: 32 mg./kg. oral (gavage), carrageenin-injected hind paw, 3 h after carrageenin, vs vehicle control, read-out: % Inhibition of edema formation. Here is the method:
In this test, anti-inflammatory activity is determined as the percent inhibition of edema formation in the hind paw of male albino rats (weighing 150-190 g.) in response to a sub-plantar injection of carrageenin. The carrageenin is injected as a 1% aqueous suspension (0.05 ml.) one hour after oral administration of the drug, which is normally given in the form of an aqueous solution. Edema formation is then assessed by measuring the volume of the injected paw initially as well as three hours after the carrageenin injection. The increase in volume three hours after carrageenin injection constitutes the individual response. Compounds are considered active if the difference in response between the drug-treated animals (six rats/group) and a control group receiving the vehicle alone is significant on comparison with the results afforded by a standard compound like phenylbutazone at 33 mg./kg., via the oral route of administration.
The following oxyethyl oxicam final products of Examples 1B, 1C and 5, respectively, were tested for anti-inflammatory activity in rats, using the standard rat foot edema test, according to the general procedure described by C. A. Winter et al., as first reported in the Proceedings of the Society for Experimental Biology and Medicine, Vol. 111, p. 544 (1962).
(In general: In the carrageenan paw model, swelling and tenderness develop within hours.)

For data set [3] the following is noted: compared with piroxicam at an equivalent dose level and other NSAI agents.

Values after ≈ are worked out from the molar mass of the structure shown.

In turn, `CC(C)Cc1ccc(C(C)C(=O)O)cc1` (centres unmarked) [Ibuprofen] came in with a solubility in data set [1] of 0.3 mg/mL (≈ 1.45 mM).

`COc1ccc2c(c1)c(CC(=O)O)c(C)n2C(=O)c1ccc(Cl)cc1` [Indomethacin] showed a solubility in data set [1] of 0.7 mg/mL (≈ 1.96 mM).

`CN1C(C(=O)Nc2ccccn2)=C(O)c2ccccc2S1(=O)=O` [Piroxicam, 4-hydroxy-2-methyl-N-(2-pyridinyl)-2H-1,2-benzothiazine-3-carboxamide 1,1-dioxide] displayed a solubility in data set [1] of 26.5 mg/mL (≈ 80 mM).

In data set [1], `CN1C(C(=O)Nc2ccccn2)=C(OCCO)c2ccccc2S1(=O)=O` [Product of Example 1B, 4-(2-hydroxyethyloxy)-2-methyl-N-(2-pyridinyl)-2H-1,2-benzothiazine-3-carboxamide 1,1-dioxide] displayed a solubility of 470 mg/mL (≈ 1250 mM). Moreover, the inhibition at 32 mg/kg in data set [2] came to 48%. Also, the “oral absorption potential, comparison in words” value in data set [3] is given as “highest oral absorption potential seen in the series of compounds tested”.

On to `CN1C(C(=O)Nc2cccc[n+]2CCO)=C([O-])c2ccccc2S1(=O)=O` [Product of Example 1C, N-[1-(2-hydroxyethyl)-2-pyridinium]-2-methyl-2H-1,2-benzothiazine-3-carboxamide 1,1-dioxide 4-enolate], for which, in data set [2], the inhibition at 32 mg/kg is 16%.

As to `Cc1cccc(NC(=O)C2=C(OCCO)c3ccccc3S(=O)(=O)N2C)n1` [Product of Example 5, 4-(2-hydroxyethyloxy)-2-methyl-N-(6-methyl-2-pyridinyl)-2H-1,2-benzothiazine-3-carboxamide 1,1-dioxide], the inhibition at 32 mg/kg in data set [2] was found to be 13%.
